Activity calls are given as the source filed them.

The target of test [1] is Cysteine protease ATG4B (Homo sapiens, UniProt Q9Y4P1). The format is functional.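 Note: Fluorescence-based dose-response confirmation assay measuring inhibition of ATG4B activity.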
The target of test [2] is Phospholipase A2 (Homo sapiens, UniProt P04054). The format is functional.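 Note: confirmatory dose-response counterscreen on phospholipase A2, testing hits that came from an ultra-high-throughput screen for ATG4B inhibitors.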
Test [3] addresses T1, Bifunctional protein GlmU (Mycobacterium tuberculosis, UniProt P9WMN3).
T1 sequence (P9WMN3 whole entry): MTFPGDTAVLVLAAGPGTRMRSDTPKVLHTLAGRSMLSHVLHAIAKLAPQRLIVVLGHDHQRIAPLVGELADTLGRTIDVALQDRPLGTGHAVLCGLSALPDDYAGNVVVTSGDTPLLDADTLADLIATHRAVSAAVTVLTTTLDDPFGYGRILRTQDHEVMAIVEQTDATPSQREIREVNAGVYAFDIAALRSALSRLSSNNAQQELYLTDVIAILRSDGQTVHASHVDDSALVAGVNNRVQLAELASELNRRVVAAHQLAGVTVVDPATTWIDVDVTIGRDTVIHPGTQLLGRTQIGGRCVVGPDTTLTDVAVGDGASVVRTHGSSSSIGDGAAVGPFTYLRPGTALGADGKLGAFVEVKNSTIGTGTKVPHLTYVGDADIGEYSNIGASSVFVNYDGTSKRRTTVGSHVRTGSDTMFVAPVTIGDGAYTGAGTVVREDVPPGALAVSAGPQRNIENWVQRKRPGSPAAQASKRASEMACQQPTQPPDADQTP
Kind of test: Inhibitors of Mycobacterial Glucosamine-1-phosphate acetyl transferase (GlmU). Secondary screen. Further details: species or system Mycobacterium tuberculosis H37Rv.

Test [4] deals with Induced myeloid leukemia cell differentiation protein Mcl-1 (Homo sapiens, UniProt Q07820). The format is functional.
Test [5] in a line: Luminescence Cell-Based Dose Retest to Confirm Inhibitors of Cancer Stem Cells. [Related pubchem assays (depositor defined):AID2717, AID2721]. The format is functional. The conditions noted are these: Homo sapiens.
A short description of test [6]: cytotoxicity in HMLE control line with eGFP shRNA, dose response, counter-screen for HMLE_sh_ECad selective toxicity project, cell-based, HMLE_sh_eGFP, luminescence (AID 463074).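 Note: HMLE human mammary epithelial cells expressing control shRNA against eGFP.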 The format is functional, Homo sapiens.
The target of test [7] is T2, Polyadenylate-binding protein 1 (Homo sapiens, UniProt P11940). Kind of test: PABP1 MLLE–PAM2 interaction inhibitors, dose response, miRNA deadenylation inhibitor project, biochemical, fluorescence polarization, Cy5-PAM2 peptide, secondary (AID 602260). The class given is functional. The note with it: read-out: IC50_Mean. (Polarisation of emitted light reports the rotation of a fluorescent probe.)

The target of test [8] is T2, Polyadenylate-binding protein 1. Briefly: PABP1 MLLE–PAM2 binding inhibitor potency, dose response, biochemical, fluorescence polarization, FITC-PAM2 peptide (AID 602259). The class given is functional. The note with it: read-out: IC50_Mean.
Test [9] in a line: inhibitors of intracellular T. cruzi replication, confirmation, NIH3T3 host cells, beta-gal luminescence (AID 2044).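 Note: intracellular parasites grown in NIH/3T3 mouse fibroblasts as host cells; luminescent beta-galactosidase reporter signal from transgenic T. cruzi replicating inside host cells; inhibitors lower the luminescence signal.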 The format is functional, cell-based.
Test [10] can be described thus: cytotoxicity toward NIH3T3 fibroblasts, dose response, counter-screen, cell-based, ATP luminescence, mouse fibroblasts (AID 2010).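 Note: cells exposed to compound for about 90 hours before reading.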 The class given is functional.
The target of test [11] is T3, Beta-adrenergic receptor kinase 1 (Homo sapiens, UniProt P25098).
T3 sequence (P25098 whole entry): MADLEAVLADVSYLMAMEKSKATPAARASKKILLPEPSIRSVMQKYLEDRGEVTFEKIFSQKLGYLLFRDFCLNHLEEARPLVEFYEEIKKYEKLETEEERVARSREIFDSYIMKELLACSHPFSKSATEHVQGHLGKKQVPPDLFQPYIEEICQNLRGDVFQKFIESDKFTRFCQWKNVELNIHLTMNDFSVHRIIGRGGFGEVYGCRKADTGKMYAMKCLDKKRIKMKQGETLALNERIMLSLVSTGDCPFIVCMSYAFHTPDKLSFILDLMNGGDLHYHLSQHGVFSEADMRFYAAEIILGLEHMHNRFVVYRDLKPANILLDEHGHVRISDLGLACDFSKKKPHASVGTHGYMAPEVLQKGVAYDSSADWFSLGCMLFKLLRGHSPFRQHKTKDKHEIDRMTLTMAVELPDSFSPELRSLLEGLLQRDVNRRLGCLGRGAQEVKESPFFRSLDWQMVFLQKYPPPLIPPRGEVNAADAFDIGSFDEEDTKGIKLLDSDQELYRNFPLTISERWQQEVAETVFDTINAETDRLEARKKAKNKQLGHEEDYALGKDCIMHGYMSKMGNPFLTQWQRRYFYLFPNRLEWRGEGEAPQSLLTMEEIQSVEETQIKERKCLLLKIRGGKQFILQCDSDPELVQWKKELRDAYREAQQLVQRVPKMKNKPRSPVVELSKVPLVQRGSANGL
Kind of test: aptamer displacement from bead-bound GRK2 – biochemical, cherry pick 1, bead flow cytometry, dose response (AID 504500). For orientation: A flow cytometer gives signals particle by particle.

For test [12], the target named is Apoptotic protease-activating factor 1 (Homo sapiens, UniProt O14727). Kind of test: activation of Apaf-1 mediated apoptosis – fluorescent, uHTS hits, dose response (AID 588554). The format is functional.
The target of test [13] is Sphingosine 1-phosphate receptor 1 (Homo sapiens, UniProt P21453). Briefly: Fluorescence-based counterscreen assay for S1P4 agonists: Cell-based dose response high throughput screening assay to identify agonists of the Sphingosine 1-Phosphate Receptor 1 (S1P1). [Related pubchem assays (depositor defined):AID1509, AID1523, AID1801, AID463107, AID463118, AID463119, AID463122, AID463123, AID463129, AID463225, AID504400, AID504460]. The format is functional.

Test [14] has as its system Streptococcus sp. 'group A'. Briefly: growth inhibition of control SK(-) GAS strain, dose response, counter-screen for streptokinase expression inhibitor project, luminescence, kanamycin, BacTiterGlo, confirmation (AID 1900). The class given is functional, organism-based.
Test [15] addresses T4, Streptokinase A (Streptococcus pyogenes serotype M1, UniProt P10520).
T4 sequence (P10520 whole entry): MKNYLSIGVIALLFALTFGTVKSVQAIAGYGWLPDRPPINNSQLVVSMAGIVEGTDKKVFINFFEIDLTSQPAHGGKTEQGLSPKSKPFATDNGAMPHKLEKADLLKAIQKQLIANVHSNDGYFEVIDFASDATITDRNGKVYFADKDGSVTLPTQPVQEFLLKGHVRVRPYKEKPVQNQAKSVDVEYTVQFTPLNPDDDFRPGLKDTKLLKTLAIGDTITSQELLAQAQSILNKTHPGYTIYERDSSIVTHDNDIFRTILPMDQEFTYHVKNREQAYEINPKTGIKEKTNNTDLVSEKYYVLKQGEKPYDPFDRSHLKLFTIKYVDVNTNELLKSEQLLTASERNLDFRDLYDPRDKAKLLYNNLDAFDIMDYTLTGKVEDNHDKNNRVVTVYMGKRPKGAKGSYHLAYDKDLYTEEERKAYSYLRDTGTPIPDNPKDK
Briefly: S. pyogenes streptokinase expression inhibitors, potency, dose response, plasminogen activation absorbance, OD405 (AID 1914).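 Note: secreted streptokinase activity via plasminogen activation per viability signal from cell pellet.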 The class given is functional, Streptococcus pyogenes M1 GAS.

In test [16] the target is Luciferin 4-monooxygenase (Photinus pyralis, UniProt P08659). Kind of test: firefly luciferase enzyme inhibitors, dose response, biochemical, luminescence (AID 1891).
For test [17], the target named is T5, Estrogen receptor (Homo sapiens, UniProt P03372).
T5 sequence (P03372 whole entry): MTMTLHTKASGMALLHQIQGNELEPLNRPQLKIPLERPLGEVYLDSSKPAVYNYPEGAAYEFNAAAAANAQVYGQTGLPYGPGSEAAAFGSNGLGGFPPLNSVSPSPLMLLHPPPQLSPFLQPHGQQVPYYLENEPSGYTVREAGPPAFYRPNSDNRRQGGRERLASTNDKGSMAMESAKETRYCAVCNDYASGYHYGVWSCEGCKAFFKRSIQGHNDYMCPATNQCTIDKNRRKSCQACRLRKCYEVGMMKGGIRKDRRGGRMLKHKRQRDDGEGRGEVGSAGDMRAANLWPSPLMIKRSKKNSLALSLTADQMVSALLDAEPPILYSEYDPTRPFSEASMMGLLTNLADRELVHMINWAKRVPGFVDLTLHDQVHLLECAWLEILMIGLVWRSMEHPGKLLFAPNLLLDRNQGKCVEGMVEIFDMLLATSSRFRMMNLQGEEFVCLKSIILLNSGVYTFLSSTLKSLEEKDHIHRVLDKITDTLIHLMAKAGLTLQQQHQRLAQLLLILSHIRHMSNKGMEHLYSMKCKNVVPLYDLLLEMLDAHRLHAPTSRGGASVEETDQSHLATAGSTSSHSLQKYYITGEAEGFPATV

Test [18] can be described thus: Luminescence Cell-Based Dose Confirmation HTS to Identify Inhibitors of Platelet Dense Granule Release. [Related pubchem assays: 1663 (Primary HTS), 1678 (Summary of Project)]. The class given is functional.
In test [19] the target is Sphingosine 1-phosphate receptor 4 (Homo sapiens, UniProt O95977). Kind of test: Fluorescence dose response cell-based high throughput screening assay for agonists of the Sphingosine 1-Phosphate Receptor 4 (S1P4). [Related pubchem assays: 1509 (Primary screen.), 1523 (Confirmation screen in triplicates.)]. The class given is functional.
The target in test [20] is T6, Estrogen receptor beta (Homo sapiens, UniProt Q92731).
In test [21] the target is T6, Estrogen receptor beta. Briefly: ERβ–SRC-3 coactivator interaction inhibitors, confirmation, orthogonal assay, biochemical, ELISA, streptavidin-HRP readout (AID 1060). (An ELISA detects its analyte on a solid surface through an enzyme-linked reagent.)
For test [22], the system named is Streptococcus. Briefly: Group A Streptococcus viability loss, dose response, counter-screen for streptokinase expression inhibitor project, luminescence, BacTiterGlo (AID 1915).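 Note: potency for reduction of bacterial viability or growth.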 The format is functional, organism-based.
The target in test [23] is Sphingosine 1-phosphate receptor 2 (Homo sapiens, UniProt O95136). Kind of test: Dose Response Cell Based Assay for Agonists of the S1P2 Receptor. [Related pubchem assays: 729, 736, 843 ]. The class given is functional.
Test [24] deals with CAAX prenyl protease 1 (Saccharomyces cerevisiae S288c, UniProt P47154). Briefly: Ste24 protease inhibitors, dose response, biochemical, S. cerevisiae, plate reader, cherry-pick (AID 488815).
The target of test [25] is Dual specificity protein kinase CLK1 (Homo sapiens, UniProt P49759). Briefly: CLK1 kinase inhibitors, off-target check, dose response, selectivity assay for Dyrk1A inhibitor project, biochemical, cherry-picked samples (AID 588811).

Chain of Cysteine protease ATG4B (Q9Y4P1 whole entry): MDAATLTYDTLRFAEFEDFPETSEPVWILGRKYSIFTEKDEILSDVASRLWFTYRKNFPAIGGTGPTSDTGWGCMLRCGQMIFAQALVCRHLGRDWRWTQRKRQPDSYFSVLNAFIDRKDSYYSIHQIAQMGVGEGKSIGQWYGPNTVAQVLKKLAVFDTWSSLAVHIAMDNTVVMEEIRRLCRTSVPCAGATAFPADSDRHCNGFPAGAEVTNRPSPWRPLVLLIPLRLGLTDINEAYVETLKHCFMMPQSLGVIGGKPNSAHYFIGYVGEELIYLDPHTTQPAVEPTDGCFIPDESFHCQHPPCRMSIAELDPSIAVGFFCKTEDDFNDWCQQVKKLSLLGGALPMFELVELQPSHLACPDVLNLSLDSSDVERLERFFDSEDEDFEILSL
T6 sequence (Q92731 whole entry): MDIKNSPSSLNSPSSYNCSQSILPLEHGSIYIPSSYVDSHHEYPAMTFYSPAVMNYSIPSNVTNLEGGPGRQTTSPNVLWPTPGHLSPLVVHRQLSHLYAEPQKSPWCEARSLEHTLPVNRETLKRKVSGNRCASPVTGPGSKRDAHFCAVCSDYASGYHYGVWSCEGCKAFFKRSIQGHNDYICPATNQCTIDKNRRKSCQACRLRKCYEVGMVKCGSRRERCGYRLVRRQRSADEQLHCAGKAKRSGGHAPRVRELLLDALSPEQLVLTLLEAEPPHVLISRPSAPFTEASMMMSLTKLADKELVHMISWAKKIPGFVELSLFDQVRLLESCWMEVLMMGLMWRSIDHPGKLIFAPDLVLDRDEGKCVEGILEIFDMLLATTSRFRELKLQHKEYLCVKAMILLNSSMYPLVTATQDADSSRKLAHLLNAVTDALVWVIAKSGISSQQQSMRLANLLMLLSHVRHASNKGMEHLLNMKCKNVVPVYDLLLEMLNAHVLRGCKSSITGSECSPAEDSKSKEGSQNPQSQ
Chain of Induced myeloid leukemia cell differentiation protein Mcl-1 (Q07820 whole entry): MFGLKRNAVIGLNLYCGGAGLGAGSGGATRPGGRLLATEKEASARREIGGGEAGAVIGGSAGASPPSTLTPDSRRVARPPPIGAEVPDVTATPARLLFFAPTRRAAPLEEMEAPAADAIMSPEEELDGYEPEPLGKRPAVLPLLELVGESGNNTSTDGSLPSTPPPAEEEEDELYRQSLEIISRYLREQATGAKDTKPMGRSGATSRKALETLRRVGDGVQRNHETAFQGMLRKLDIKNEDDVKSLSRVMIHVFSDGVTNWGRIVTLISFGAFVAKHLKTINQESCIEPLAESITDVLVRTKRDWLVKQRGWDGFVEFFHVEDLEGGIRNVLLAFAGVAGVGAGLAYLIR
Chain of Phospholipase A2 (P04054 whole entry): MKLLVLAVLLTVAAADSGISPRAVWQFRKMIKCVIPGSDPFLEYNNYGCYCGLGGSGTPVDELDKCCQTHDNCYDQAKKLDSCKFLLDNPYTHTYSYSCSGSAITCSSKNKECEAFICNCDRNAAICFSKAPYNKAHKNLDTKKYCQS
T2 sequence (P11940 whole entry): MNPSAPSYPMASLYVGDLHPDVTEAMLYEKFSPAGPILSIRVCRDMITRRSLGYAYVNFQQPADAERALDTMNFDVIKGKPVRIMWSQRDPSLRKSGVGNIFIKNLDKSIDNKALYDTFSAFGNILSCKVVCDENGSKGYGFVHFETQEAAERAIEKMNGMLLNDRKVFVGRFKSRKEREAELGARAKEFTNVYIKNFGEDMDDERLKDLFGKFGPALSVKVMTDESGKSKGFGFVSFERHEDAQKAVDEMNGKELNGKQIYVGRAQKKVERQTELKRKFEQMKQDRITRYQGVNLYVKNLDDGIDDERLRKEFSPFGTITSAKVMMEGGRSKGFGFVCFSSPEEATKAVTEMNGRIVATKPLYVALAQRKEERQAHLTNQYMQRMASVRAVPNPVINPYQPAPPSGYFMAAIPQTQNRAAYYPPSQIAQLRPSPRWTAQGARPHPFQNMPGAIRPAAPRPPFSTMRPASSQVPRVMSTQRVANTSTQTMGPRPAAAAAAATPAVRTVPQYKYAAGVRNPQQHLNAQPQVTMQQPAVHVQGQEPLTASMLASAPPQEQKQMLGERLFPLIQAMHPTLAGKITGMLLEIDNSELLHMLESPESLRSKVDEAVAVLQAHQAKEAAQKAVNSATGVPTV
Chain of Apoptotic protease-activating factor 1 (O14727 whole entry): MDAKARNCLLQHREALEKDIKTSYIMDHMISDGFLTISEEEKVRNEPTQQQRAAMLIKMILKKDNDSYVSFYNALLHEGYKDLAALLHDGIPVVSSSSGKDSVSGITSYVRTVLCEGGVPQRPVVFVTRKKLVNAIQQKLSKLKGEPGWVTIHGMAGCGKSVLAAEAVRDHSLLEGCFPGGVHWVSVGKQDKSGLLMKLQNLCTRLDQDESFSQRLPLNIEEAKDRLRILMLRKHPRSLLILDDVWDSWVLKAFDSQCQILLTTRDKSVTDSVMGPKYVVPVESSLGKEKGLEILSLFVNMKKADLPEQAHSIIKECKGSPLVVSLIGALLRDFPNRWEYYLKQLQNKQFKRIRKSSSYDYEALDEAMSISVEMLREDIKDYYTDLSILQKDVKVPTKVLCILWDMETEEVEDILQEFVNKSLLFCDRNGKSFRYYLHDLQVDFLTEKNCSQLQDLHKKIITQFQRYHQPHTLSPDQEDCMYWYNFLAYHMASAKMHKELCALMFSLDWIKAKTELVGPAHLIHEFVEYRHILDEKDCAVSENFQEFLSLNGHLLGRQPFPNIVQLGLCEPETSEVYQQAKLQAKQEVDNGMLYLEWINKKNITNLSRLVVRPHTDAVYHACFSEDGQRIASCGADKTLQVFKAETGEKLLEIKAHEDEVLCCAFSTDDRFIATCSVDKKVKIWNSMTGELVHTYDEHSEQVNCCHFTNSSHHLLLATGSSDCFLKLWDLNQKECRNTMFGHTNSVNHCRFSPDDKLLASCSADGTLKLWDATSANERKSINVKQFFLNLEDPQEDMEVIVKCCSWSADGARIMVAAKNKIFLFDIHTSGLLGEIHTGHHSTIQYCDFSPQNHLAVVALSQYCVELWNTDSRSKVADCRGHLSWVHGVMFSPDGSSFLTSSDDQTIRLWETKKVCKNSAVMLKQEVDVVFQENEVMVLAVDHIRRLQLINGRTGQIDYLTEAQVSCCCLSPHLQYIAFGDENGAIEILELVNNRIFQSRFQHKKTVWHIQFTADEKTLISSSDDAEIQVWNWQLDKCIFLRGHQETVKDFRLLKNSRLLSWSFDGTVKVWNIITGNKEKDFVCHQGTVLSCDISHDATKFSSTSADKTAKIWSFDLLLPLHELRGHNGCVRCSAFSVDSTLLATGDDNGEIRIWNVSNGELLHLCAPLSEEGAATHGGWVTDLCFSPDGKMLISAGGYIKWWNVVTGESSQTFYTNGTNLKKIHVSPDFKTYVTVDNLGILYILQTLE
Chain of Sphingosine 1-phosphate receptor 1 (P21453 whole entry): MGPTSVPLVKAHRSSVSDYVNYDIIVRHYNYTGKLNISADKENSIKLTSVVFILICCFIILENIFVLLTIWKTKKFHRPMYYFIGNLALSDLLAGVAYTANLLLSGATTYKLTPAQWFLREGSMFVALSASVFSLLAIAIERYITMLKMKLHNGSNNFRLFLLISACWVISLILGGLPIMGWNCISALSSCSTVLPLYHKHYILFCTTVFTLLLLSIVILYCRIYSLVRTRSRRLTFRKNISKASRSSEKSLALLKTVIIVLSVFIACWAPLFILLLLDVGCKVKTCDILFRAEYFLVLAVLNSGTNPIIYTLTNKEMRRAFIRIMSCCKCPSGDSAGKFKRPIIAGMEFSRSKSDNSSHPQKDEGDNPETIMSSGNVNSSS
Chain of Sphingosine 1-phosphate receptor 4 (O95977 whole entry): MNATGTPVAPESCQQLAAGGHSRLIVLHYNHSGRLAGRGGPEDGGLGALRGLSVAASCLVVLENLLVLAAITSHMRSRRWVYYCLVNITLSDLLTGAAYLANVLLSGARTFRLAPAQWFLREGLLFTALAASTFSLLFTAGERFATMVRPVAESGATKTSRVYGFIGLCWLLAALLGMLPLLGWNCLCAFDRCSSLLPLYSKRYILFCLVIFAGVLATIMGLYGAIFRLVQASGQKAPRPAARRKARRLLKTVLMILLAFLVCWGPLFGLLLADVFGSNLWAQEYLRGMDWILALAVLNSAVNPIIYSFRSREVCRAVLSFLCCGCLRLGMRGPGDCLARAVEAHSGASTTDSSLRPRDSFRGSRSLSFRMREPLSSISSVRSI
Chain of CAAX prenyl protease 1 (P47154 whole entry): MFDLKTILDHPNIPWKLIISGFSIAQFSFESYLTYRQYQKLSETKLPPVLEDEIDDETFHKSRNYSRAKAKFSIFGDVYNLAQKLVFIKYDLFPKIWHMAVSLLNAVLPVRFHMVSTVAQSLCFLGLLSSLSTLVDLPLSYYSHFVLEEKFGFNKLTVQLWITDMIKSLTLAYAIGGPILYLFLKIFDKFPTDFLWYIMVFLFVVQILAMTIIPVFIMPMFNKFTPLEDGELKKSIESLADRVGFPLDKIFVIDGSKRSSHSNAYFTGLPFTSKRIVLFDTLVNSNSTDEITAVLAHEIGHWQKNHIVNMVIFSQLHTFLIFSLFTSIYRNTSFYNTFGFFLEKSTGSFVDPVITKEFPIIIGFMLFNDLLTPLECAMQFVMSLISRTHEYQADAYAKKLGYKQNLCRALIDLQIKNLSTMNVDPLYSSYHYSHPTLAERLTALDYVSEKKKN
Chain of Sphingosine 1-phosphate receptor 2 (O95136 whole entry): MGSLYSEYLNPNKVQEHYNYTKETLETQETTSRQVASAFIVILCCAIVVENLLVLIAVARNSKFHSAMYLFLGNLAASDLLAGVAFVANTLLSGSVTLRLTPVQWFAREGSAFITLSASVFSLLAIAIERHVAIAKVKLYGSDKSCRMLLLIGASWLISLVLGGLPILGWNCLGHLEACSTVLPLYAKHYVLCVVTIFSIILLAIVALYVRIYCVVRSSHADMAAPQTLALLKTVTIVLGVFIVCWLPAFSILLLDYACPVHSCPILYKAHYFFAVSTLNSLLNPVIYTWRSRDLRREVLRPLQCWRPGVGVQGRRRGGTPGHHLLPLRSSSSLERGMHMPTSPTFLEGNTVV

For `O=C(Nc1c(Cl)cccc1Cl)c1cc(-c2ccco2)on1`, the IC50 in test [1] was 13.2 µM (active); in test [2], 6.14 µM (active).

Turning to `O=C1NN(c2cccc(F)c2)C(=O)/C1=C1\C(=O)Nc2ccccc21`, the IC50 is 199 µM (active) in [3], < 0.4 µM (active) in test [4], > 66 µM (inactive) in [7] and > 66 µM (inactive) in test [8]. The AC50 in test [5] was 4.9 µM (active); in [6], 43.3 µM (active).

On to `COc1cc(-c2nc(-c3ccccc3)c(-c3cccs3)[nH]2)cc(OC)c1OC`, for which the results for the concentration for a half-maximal effect (EC50) in test [9] and in [10] were 1.21 µM (active) and > 30 µM (not active), respectively. Further, the AC50 is 50.3 µM (active) in [5] and 29.9 µM (active) in test [6].

In the case of `C=C(C)C(=O)Nc1cccc(C2=NOC3(C2)C[C@H](C(N)=O)N(C(=O)C(c2ccccc2)c2ccccc2)C3)c1` (stereo partly specified), the IC50 in test [3] is 167 µM (active); in test [4] it was 3.12 µM (active). The EC50 in test [11] was 85.9 µM (inactive); in test [12], 11.4 µM (active).

With `O=C(NCc1ccco1)c1cc2ccc(O)cc2oc1=O`, the concentration giving a half-maximal response (EC50) in [13] is 5.05 µM (active); in [14], 7.99 µM (active); in test [15], > 150 µM (not active); in [16], 0.288 µM (active); in [18] it was 1.82 µM (active); in test [19], 1.84 µM (active). The EC50 is 13.3 µM (active) in [22] and 3.28 µM (active) in test [23]. Moreover, the IC50 in test [17] was 14.3 µM (active); in test [20], 3.57 µM (active); in [21] it was > 50 µM (not active).

Take `CCN(CC(=O)N1CCc2ccccc2C1)S(=O)(=O)c1ccc2ccccc2c1`: the IC50 is 23.7 µM (inactive) in [1] and 4.17 µM (active) in test [2].

In the case of `CC1=CC2=NC(=O)CC(C)(C(=O)N(CC(=O)NC3CCCC3)Cc3ccccc3)N2C=C1` (stereo unspecified), the AC50 in [24] was 11.5 µM (active).

`Cc1csc(CN(C)c2ncnc3ccc(-c4ccc5c(c4)OCO5)cc23)n1`: in test [25], the AC50 was 2.23 µM (active).

What is called AC50 is the concentration at which the activity in the assay is half-maximal. As a reminder, the EC50 is the concentration needed to bring the measured effect to its halfway point.

The values are drawn from ChEMBL document CHEMBL1201862, “PubChem BioAssay data set” (2004).
